Read-outs that look alike come from different tables or passages of the source.
Key:
[1] = target: T1, BRN2 (Homo sapiens, UniProt P20265); assay: BLI binding; conditions: result in words
T1 sequence (P20265 1-443): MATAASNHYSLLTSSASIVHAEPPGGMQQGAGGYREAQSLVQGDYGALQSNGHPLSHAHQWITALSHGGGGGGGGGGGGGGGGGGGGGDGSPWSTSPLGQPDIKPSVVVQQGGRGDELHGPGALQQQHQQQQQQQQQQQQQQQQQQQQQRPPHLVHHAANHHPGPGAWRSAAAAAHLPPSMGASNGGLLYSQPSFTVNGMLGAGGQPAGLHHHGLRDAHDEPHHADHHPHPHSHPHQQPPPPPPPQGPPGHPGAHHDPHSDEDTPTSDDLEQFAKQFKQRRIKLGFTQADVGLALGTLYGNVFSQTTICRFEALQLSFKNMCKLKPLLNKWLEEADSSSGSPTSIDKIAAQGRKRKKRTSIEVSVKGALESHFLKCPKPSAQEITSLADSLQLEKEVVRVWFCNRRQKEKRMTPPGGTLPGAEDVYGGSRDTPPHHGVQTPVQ

[2] = Metabolic stability in liver microsomes (MLM); assay type: in vitro ADME, mice; conditions: 0.25 mg/mL protein; for half-life at 1 μM: mouse, liver microsomes, pH 7.4, 1 μM compound, read-out: T1/2 in mins (MLM); for Met Stab % (60 mins) MLM: percent remaining at 60 min, 1 μM compound, 1 mM NADPH
Method: Preparation of Potassium Phosphate Buffer, 50 mM (pH 7.4)
Potassium phosphate buffer (Kphos) was prepared by adding 0.647 g potassium phosphate monobasic (KH2PO4) and 3.527 g potassium phosphate dibasic (KH2PO4) to 400 mL of Milli-Q™ water. pH of the buffer was adjusted to 7.4 and volume was made up to 500 mL.
Preparation of Microsomes
Stock solutions of BRN2 inhibitors were prepared in DMSO at a concentration of 1 mM
Preparation of NADPH Solution
• Total Incubation volume: 100 μL • Compound concentration: 1 μM • Protein Concentration: 0.25 mg/mL • NADPH: 1 mM • Final DMSO contain: 0.1% • Number of replicates: 2 • Time points: 0, 5, 15, 30 and 60 min
From the above mix, 70 μL was added to individual wells of 96 well reaction plates and pre-incubated in a 37° C. water bath for 5 min. […] Reactions without NADPH and buffer controls (minus NADPH) at 0 min and 60 min were also incubated to rule out non-NADPH metabolism or chemical instability in the incubation buffer. All reactions were terminated using 100 μL of ice-cold acetonitrile containing internal standard at 0, 5, 15, 30 and 60 min.
Samples were monitored for parent compounds disappearance in MRM mode using LC-MS/MS.
The percent remaining of test compounds and positive control in each sample was determined by considering peak area ratio in the 0 minute sample as 100%. The Half-life of compounds in microsomes is calculated by formula: […]
In vitro intrinsic clearance (CL'int) (units in mL/min/kg) was calculated using the formula.
[formula] • For liver microsomes, scaling factor used was 45 mg microsomal protein per gm liver. • * Indicates liver weight (gm) which varies species wise. For mice the liver weights are 90 gm.

[3] = system: 42D^ENZR cells; assay: Cell proliferation, BRN2 expressing 42D cells (crystal violet); assay type: cell-based; conditions: for Growth Specificity: 42D (express BRN2) versus 16D (no BRN2) cells, result in words
Method: Step 3: Cell Proliferation
Plate 42DE^NZR (˜7000 cells per well) and 16D^CRPC (˜5000 cells per well) cells in 96 well plate with a volume of 100 μL per well. • 2. Next day 1 mL aliquots of media are combined with 3× the desired concentration of compounds. The aliquots are vortexed and 50 μL of each 3× concentration is added to the 100 μL of media in each well to give the ix desired concentration.
The following are the desired concentrations:
Approximately 72 hours later, 17 μL of 10% Glutaraldehyde is added to each well and plates are placed on a shaker for 20-30 minutes. • 4. Media is washed off the fixed cells by slow submersion in a container of water. Then the water is removed by tapping the plate upside down. • 5. 75 μL of Crystal Violet™ solution is added into the 96 well plates and placed on a shaker for ˜30 minutes. • 6. Media is washed off the fixed cells by repeated slow submersion in a container of water and the plates are allowed to dry over-night. • 7. Next day, 75 μL of Sorensen Solution is accurately pipetted into each well. The plates placed on a shaker for ˜30 minutes. • 8. Absorbance is measured in the plate at 590 nm.
There is a distinction in TABLES 1 and 2 difference between “Active” and “Specific” or “Specificity”.

[4] = 42D cells, proliferation, about 72 hours, read-out: 42D IC50
[5] = read-out: IC50 (effective on both 42D and 16D cells)

SMILES	BLI binding [1]	half-life at 1 μM [2]	Met Stab % (60 mins) MLM [2]	Growth Specificity ([3]; about 72 hours)	IC50 [3, 4]	IC50 [3, 5]
O=C1/C(=N\Nc2nc3ccccc3s2)Cc2c(F)cccc21 [7-126]	binding	15 min	6%	specific	–	–
CC(C)c1ccc2c(c1)C/C(=N/Nc1nc3ccccc3s1)C2=O [7-122]	No binding	10 min	1%	Not specific	–	–
CNC(=O)c1ccc2c(c1)C(=O)/C(=N\Nc1nc3ccccc3s1)C2 [7-118]	No binding	–	–	very low activity	–	–
O=C1/C(=N\Nc2nc3ccccc3s2)Oc2ccccc21 [7-90]	no binding	13 min	4%	Not specific	–	–
N#Cc1ccc2c(c1)C(=O)/C(=N\Nc1nc3ccccc3s1)C2 [7-92]	Positive binding	48 min	41%	Specific but weak	~15 µM	–
O=C1Nc2cc(F)ccc2/C1=N\Nc1nc2ccccc2s1 [7-124]	No binding	27 min	21%	Not specific	–	–
CC(C)(C)OC(=O)c1ccc2c(c1)C(=O)/C(=N\Nc1nc3ccccc3s1)C2 [7-119]	No binding	27 min	18%	Not specific	–	–
O=C1/C(=N\Nc2nc3ccccc3s2)Cc2cc(F)c(Cl)cc21 [7-100]	Positive binding	38 min	30%	Specific to 42D	~2 µM	–
O=C1/C(=N\Nc2nc3ccccc3s2)Cc2cc(Cl)ccc21 [7-71, (Z)-2-(2-(benzo[d]thiazol-2-yl)hydrazineylidene)-5-chloro-2,3-dihydro-1H-inden-1-one]	Positive binding	47 min	35%	Specific to 42D but weak	~15 µM	–
CCc1ccc2c(c1)C/C(=N/Nc1nc3ccccc3s1)C2=O [7-104]	No binding	25 min	17%	Not specific	–	–
O=C1/C(=N\Nc2nc3ccccc3s2)Cc2cc(F)ccc21 [7-70, (Z)-2-(2-(benzo[d]thiazol-2-yl)hydrazineylidene)-5-fluoro-2,3-dihydro-1H-inden-1-one]	Positive binding	50 min	38%	Specific to 42D	~5 µM	–
COC(=O)c1ccc2nc(N/N=C3/Cc4ccccc4C3=O)sc2c1 [7-111]	No binding	15 min	6%	No activity	–	–
O=C1/C(=N\Nc2nc3ccccc3s2)Cc2cc(O)ccc21 [7-121]	Positive binding	36 min	30%	Not specific	–	–
O=C1/C(=N\Nc2nc3ccccc3s2)Cc2ccc(F)cc21 [7-81, (Z)-2-(2-(benzo[d]thiazol-2-yl)hydrazineylidene)-6-fluoro-2,3-dihydro-1H-inden-1-one]	Positive binding	22 min	26%	Specific to 42D	–	–
O=C1/C(=N\Nc2nc3ccccc3s2)Cc2c(Cl)cccc21 [7-125]	No binding	44 min	36%	specific	–	–
CNC(=O)c1ccc2c(c1)C/C(=N/Nc1nc3ccccc3s1)C2=O [7-117]	No binding	–	–	Not specific	–	–
CN(/N=C1\CCc2ccccc21)c1nc2ccccc2s1 [7-30]	–	11 min	1%	Non-specific. Effective on both 42D and 16D cells	–	–
Clc1cccc2nc(N/N=C3\CCc4ccccc43)sc12 [7-34]	–	6 min	0%	Non-specific. Effective on both 42D or 16D cells	–	–
FC1(F)Cc2ccccc2/C1=N/Nc1nc2ccccc2s1 [7-35]	–	12 min	1%	Not effective on 42D or 16D cells	–	–
O=C1c2ccccc2CC1/C=N/Nc1nc2ccccc2s1 (stereo not shown) [7-69, (E)-2-((2-(benzo[d]thiazol-2-yl)hydrazineylidene)methyl)-2,3-dihydro-1H-inden-1-one]	–	44 min	33%	not specific	–	–
O=C1/C(=N\Nc2nc3ccccc3s2)Cc2cc(-c3ccccc3)ccc21 [7-98]	–	33 min	26%	Specific to 42D	~2 µM	–
c1ccc2c(c1)Cc1nn(-c3nc4ccccc4s3)cc1-2 [7-37]	–	16 min	7%	Not effective on 42D or 16D cells	–	–
CC1(C)C/C(=N/Nc2nc3ccccc3s2)c2ccccc21 [7-53]	–	13 min	4%	effective on both 42D and 16D cells	–	10 µM
Fc1cccc2c1/C(=N\Nc1nc3ccccc3s1)CC2 [7-58]	–	7 min	0%	effective on both 42D and 16D cells	–	10 µM
O=C1/C(=N\Nc2nc(-c3ccccc3)cs2)Cc2ccccc21 [7-78]	–	32 min	32%	Not effective on 42D or 16D cells	–	–

Reference: patent publication US20250205204A1, “Transcription Factor Brn2 Inhibitory Compounds for Use as Therapeutics” (The University of British Columbia, priority 2021, published 2025)
